Experiment: Brain tissue binding by equilibrium dialysis, rat brain homogenate
Assay type: in vitro ADME
Settings: male, Sprague Dawley, pH 7.4, read-out: Rat brain tissue binding (Fu %)
Description: Methods: Plasma protein binding and blood tissue binding of test items (0.5 μM) was determined using biological samples from male Sprague Dawley (SD) rats and humans. […] Dexamethasone was used as a control compound for lung tissue binding. Various biological samples were spiked with test compounds according to the methods that follow.
Preparation of brain homogenate samples: Test items were dissolved in DMSO (or an appropriate solvent) to give a 10 mM solution. Further dilutions, to obtain […] working solutions (WS), were then prepared using 50% acetonitrile in Milli Q water. These 100×WS were used to spike the brain homogenate to obtain a final concentration of 5 μM. From this initial spiking solution, control samples (n=3) referred to as T=0, were immediately extracted by protein precipitation.
An equilibrium dialysis method was performed to determine protein binding in the various biological samples described herein. Materials were prepared and methods were in accordance with the following procedures.
Membranes were prepared for use in the equilibrium dialysis experiment. by soaking in deionized water for at least 60 minutes. After this period, 20% of pure ethanol was added, and the membranes were left in this solution for at least 20 minutes. The membranes were then rinsed in Milli-Q water prior to use.
To initiate the experiment, 150 μL of test item-free buffer (isotonic phosphate buffer for plasma and blood, artificial CSF buffer for brain or HBSS buffer for lung) was dispensed on one half-well of a 96-well dialyzer apparatus (HTDialysis LLC), and 150 μL of spiked matrix (plasma, blood, brain or lung) was loaded on the other half-well. Alternative volumes may be used according to the operating instructions of HTDialysis.
The artificial cerebrospinal fluid (CSF) buffer was prepared as follows, NaCl 3.652 g, KCl 93.2 mg, MgCl2 119.96 mg, CaCl2 92.61 mg, Na2HPO4*H2O 268.0 mg. These were dissolved in […] of MilliQ water, and the pH was adjusted to a pH of 7.4 with H3PO4.
Dialysis buffer was prepared by dissolving Na2HPO4 8.69 g, KH2PO4 1.90 g, and NaCl 4.11 g in […] of MilliQ water, and adjusting the pH to 7.4 with H3PO4. […]
Samples were then injected onto an HPLC MS/MS or UPLC MS/MS system. In order to control the integrity of the membrane after the dialysis process, the presence of protein was assessed in the buffer compartment. […]
Samples were analyzed in a LC-MS/MS system using an analytical method to monitor the compound to internal standard peak area ratios as representative of the compound concentrations. Alternatively, samples were analyzed by RapidFire. […]

SMILES | fraction unbound at 5 h, 5 μM
COC(=O)c1cc2c(cc1OC)CC(N)C2 (stereo not shown) [CMP-401] | > 0.5
COC(=O)c1ccc2c(c1)CC(N)C2 (stereo not shown) [CMP-405, 2-aminoindane-5-methylcarboxylate] | 0.24
COc1ccc2c(c1)CC(N)C2 (stereo not shown) [MEAI, 5-methoxy-2-aminoindane] | 0.33
COc1cc2c(cc1C)CC(N)C2 (stereo not shown) [MMAI, 5-methoxy-6-methyl-2-aminoindane] | 0.12

— patent US20260159474A1, “Aminoindane Compounds and Compositions and Methods of Their Therapeutic Use” (Solvonis Therapeutics Ireland Holdings Limited, priority 2021, published 2026)
